Results: patent publication US20080182978A1, “ANTI-NGF ANTIBODIES AND METHODS USING SAME” (RINAT NEUROSCIENCE CORP, priority 2002, published 2008)

B1: E3: humanized, affinity matured anti-NGF antagonist antibody; variable regions SEQ ID NO:1 and 2; human IgG2a (A330P331 to S330S331), kappa (antibody, V domains shown)
VH: QVQLQESGPGLVKPSETLSLTCTVSGFSLIGYDLNWIRQPPGKGLEWIGIIWGDGTTDYNSAVKSRVTISKDTSKNQFSLKLSSVTAADTAVYYCARGGYWYATSYYFDYWGQGTLVTVS
VL: DIQMTQSPSSLSASVGDRVTITCRASQSISNNLNWYQQKPGKAPKLLIYYTSRFHSGVPSRFSGSGSGTDFTFTISSLQPEDIATYYCQQEHTLPYTFGQGTKLEIKRT
modifications: human IgG2a constant (A330S/P331S) and kappa constant missing

What was measured:
Type in all cases: in vivo, rat
[1] = system: complete Freund's adjuvant (CFA)-induced chronic arthritis; test: CFA arthritis rats, hindpaw weight; details: arthritic rats; E3 1 mg/kg or 911 10 mg/kg i.v. D14+D19, indomethacin 3 mg/kg p.o. over 10 days; D24
Experimental: (§1) On Day 24 (5 days after the last i.v. bolus injection or 24 hours after the last p.o. administration) (after X-rays radiographies), each animal hindpaw (arthritic and non arthritic rats) was weighed and was collected in a labelled polyethylene vial. Tissue samples were frozen in liquid nitrogen and stored at −80° C.
(§2) All results were reported as Mean ±S.E.M. of 10 rats in each group at each time point. Paw volume was expressed in ml calculated from the mean value of the right and left paw volume. Arthritis index was calculated from the sum of the score obtained for each of the 4 paws. The nociceptive response was evaluated by the intensity of the level of vocalization recorded for each animal (mean of 4 values: 2 times/paw) in mV. The percentage inhibition of the nociceptive response was calculated from the mean value of the vehicle-treated arthritic group [(mean value of vehicle-treated arthritic group−mean value of treated arthritic group/mean value of vehicle-treated arthritic group)*100]. Body weight was expressed in grams. Hindpaws (left and right) weight was expressed in grams. Cytokine levels (IL-6, IL-1β, TNF-α and TGF-β1) of each hind paw was expressed in pg/ml. Circulating levels of TGF-β1 was expressed in pg/ml. Radiological index for each parameter (demineralization, erosions, periostal reaction, soft tissue damage, space joint, osteogenesis deformity) and total radiological index (total score) were calculated from the sum of the scores obtained for each parameter. The inter-group significances of the deviations between the values of vehicle-treated group (arthritic rats) and vehicle-treated group (non arthritic rats) were assessed by the Student t test or Mann-Whitney Rank Sum Test when equal variance or normality test failed. The inter-group significances of the deviations between the values of vehicle-treated group (arthritic rats) and E3- and 911- and Indomethacin-treated groups were assessed by the 1-way analysis of variance ANOVA followed by the non-paired Dunnett t test. A probability of P<0.05 was considered as significant. All statistical analysis was performed by the Sigmastat™ software.

[2] = system: IL-6, IL-1β, TNF-α and TGF-β1; test: CFA arthritis rats, paw cytokine levels (ELISA); details: D24; for left paw IL-1β level / left paw IL-6 level / left paw TGF-β1 level / left paw TNF-α level / right paw IL-1β level / right paw IL-6 level / right paw TGF-β1 level / right paw TNF-α level: arthritic rats, E3 1 mg/kg or 911 10 mg/kg i.v. D14+D19, indomethacin 3 mg/kg p.o.
Experimental: as §1
Preparation of Joint Homogenates: Frozen Hind Paws were Pulverized Using a Bio-Pulverizer. The powdered hind paws were then placed into a 50 ml conical centrifuge tube containing 3 ml PBS supplemented with 50 μl of anti-protease cocktail and homogenized on ice using Ultra-Turrax homogenizer (50% of the maximal speed). Homogenates were then centrifuged at 2000×g for 15 minutes at 4° C. and supernatants were filtered through 0.2 μm Sartorius filters, aliquoted and stored at −80° C. until use.
Cytokine levels measurement: Cytokine levels of TNF-α (Rat TNF-a ELISA kit, ref. RTA00, Batch 213718, R&D Systems, France), IL-1 Rat […] ELISA kit, ref. RLB00, Batch 212435, R&D Systems, France), IL-6 Rat IL-6 ELISA kit, ref. R6000, Batch 211773, 214008 and 214362, R&D Systems, France), and TGF-β1 Human TGF-β1 ELISA kit, ref. DB100, Batch 212258 and 213610, R&D Systems, France) were determined in duplicate, according to the manufacturer's procedure. Aliquots of hind paw homogenates were stored at −80° C.
as §2

[3] = system: complete Freund's adjuvant (CFA)-induced chronic arthritis; test: CFA arthritis rats, paw volume (plethysmometer); details: for change of paw volume compared to vehicle-treated arthritic group: E3 1 mg/kg or 911 10 mg/kg i.v. D14+D19, indomethacin 3 mg/kg/day p.o.; for paw volume (mean of right and left hindpaw): arthritic rats
Experimental: Five groups of 10 animals (5-weeks old male Lewis rats-LEWIS Lew/Ico, from Charles River Laboratories—Belgium) each were included in this study: Group 1: non arthritic rats/saline (vehicle), i.v. bolus, n=10; Group 2: arthritic rats/saline (vehicle), i.v. bolus, n=10; Group 3: arthritic rats/Indomethacin 3 mg/kg, p.o daily over 10 days, n=10; […]; Group 5: arthritic rats/911, 10 mg/kg, i.v. bolus, n=10. The doses were expressed in terms of free active substance (mg/kg). E3 and 911 were extemporaneously prepared in saline from the stock solution to the desired concentration. […]. All diluted solutions (before i.v. injection) were sterilized using a sterile filter unit of 0.20.μm. pH and osmolarity values of diluted solutions were measured before each i.v. injection. Before the first i.v., osmolarity (mosm/L) for saline, E3, and 911 were 278, 269, and 308 respectively; pH for saline, E3, and 911 were 5.93, 6.76, 6.71 respectively. Before the second i.v., osmolarity (mosm/L) for saline, E3, and 911 were 280, 270, and 309 respectively; pH for saline, E3, and 911 were 5.86, 6.72, and 6.59 respectively.
E3 or 911 or saline were administered by i.v. bolus injection on Day 14 and Day 19 after arthritis induction in a coded and random order with a volume of 5 mL/kg. The non arthritic group was given by i.v. bolus injection of saline on Day 14 and Day 19 with a volume of 5 mL/kg. Indomethacin was extemporaneously prepared in 1% methylcellulose. Indomethacin was administered by oral route (p.o.) once daily over 10 days from Day 14 to Day 23 after arthritis induction in a coded and random order with a volume of 10 mL/kg.
The right and left hindpaw volume of each rat (arthritic and non arthritic rats) was measured using a plethysmometer. The measurements were performed at the following times (after induction of arthritis): Day 14 (before i.v. bolus or p.o. administration); and Day 24 (5 days after the last i.v. bolus injection or 24 h after the last p.o. administration). All measurements were performed between 9:00 and 12:00 am. All the data were collected and stored by the WinDas software.
as §2

[4] = E3 1 mg/kg or 911 10 mg/kg i.v. D14+D19, indomethacin 3 mg/kg/day p.o. 10 days, D24

| Molecule | left hindpaw weight [1] [grams] | right hindpaw weight [1] [grams] | left paw IL-1β level [2] [pg/mL] | left paw IL-6 level [2] [pg/mL] | left paw TGF-β1 level [2] [pg/mL] | left paw TNF-α level [2] [pg/mL] | right paw IL-1β level [2] [pg/mL] | right paw IL-6 level [2] [pg/mL] | right paw TGF-β1 level [2] [pg/mL] | right paw TNF-α level [2] [pg/mL] | decrease of TGF-β1 level in right paw compared to vehicle-treated arthritic group ([2]; indomethacin 3 mg/kg/day p.o. 10 days) | change of paw volume compared to vehicle-treated arthritic group ([3]; D24) | paw volume (mean of right and left hindpaw) ([3]; D14 (before dosing)) [mL] | paw volume (mean of right and left hindpaw) [3, 4] [mL] | effect on IL-6, IL-1β, TNF-α or TGF-β1 levels in both paws vs vehicle-treated arthritic group ([2]; 1 mg/kg i.v. on D14 and D19) |
| --- | --- | --- | --- | --- | --- | --- | --- | --- | --- | --- | --- | --- | --- | --- | --- |
| COc1ccc2c(c1)c(CC(=O)O)c(C)n2C(=O)c1ccc(Cl)cc1 [Indomethacin, reference compound] | 2.23±0.04 | 2.20±0.05 | 4029.1 ± 449.9 | 249.7 ± 60.4 | 7708.2 ± 293.9 | 29.9 ± 3.6 | 3884.4 ± 534.4 | 295.9 ± 47.8 | 7057.4 ± 335.6 | 30.6 ± 5.7 | about 1.3 times | about −0.75 mL | 2.08 ± 0.06 | 1.59 ± 0.03 | – |
| B1 | 3.86±0.14 | 3.72±0.13 | 5060.0 ± 473.5 | 234.4 ± 35.2 | 9796.7 ± 491.2 | 23.6 ± 2.5 | 4853.5 ± 605.0 | 214.6 ± 47.2 | 9362.7 ± 423.4 | 21.5 ± 2.5 | – | about 0.37 mL | 2.06 ± 0.03 | 2.71 ± 0.09 | did not affect |
